Molecules are shown by their SMILES.

This passage reports IC50 results from patent publication US8778935B2 (Centro Nacional de Investigaciones Oncologicas (CNIO), priority 2009, dated 2014).

The first assay deals with T1, PI3K (p110α/p85α) (Homo sapiens, UniProt P42336).
T1 construct: purchased Carna Biosciences 07CBS-0402A
T1 sequence (P42336 whole entry): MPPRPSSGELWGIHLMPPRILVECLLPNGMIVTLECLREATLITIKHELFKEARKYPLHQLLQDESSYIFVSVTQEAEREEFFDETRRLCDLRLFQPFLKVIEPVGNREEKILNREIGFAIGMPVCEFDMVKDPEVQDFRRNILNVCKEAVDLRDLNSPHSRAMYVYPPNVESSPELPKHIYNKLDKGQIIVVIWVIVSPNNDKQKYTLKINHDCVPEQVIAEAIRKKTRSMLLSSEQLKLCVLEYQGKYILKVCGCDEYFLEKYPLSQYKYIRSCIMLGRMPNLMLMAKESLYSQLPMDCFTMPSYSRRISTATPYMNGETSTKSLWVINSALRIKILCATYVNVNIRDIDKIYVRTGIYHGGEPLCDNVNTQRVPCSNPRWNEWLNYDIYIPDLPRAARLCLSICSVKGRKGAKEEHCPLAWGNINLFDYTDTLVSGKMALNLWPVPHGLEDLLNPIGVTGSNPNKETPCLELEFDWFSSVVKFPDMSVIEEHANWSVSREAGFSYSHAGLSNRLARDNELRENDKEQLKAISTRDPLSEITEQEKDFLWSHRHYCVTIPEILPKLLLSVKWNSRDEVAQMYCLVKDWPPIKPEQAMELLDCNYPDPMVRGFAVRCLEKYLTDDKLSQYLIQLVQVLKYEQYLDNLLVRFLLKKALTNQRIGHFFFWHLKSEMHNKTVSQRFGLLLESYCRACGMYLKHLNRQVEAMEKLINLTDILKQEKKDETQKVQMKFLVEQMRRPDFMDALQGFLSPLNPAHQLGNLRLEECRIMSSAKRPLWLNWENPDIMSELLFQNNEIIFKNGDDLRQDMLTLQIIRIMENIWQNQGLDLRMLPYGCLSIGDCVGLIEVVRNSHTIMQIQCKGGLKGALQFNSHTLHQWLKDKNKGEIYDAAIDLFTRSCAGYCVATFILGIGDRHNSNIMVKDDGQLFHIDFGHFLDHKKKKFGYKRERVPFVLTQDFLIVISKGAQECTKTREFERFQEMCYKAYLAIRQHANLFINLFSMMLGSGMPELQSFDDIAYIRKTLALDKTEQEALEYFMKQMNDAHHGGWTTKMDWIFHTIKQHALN
T1 sequence (P27986 whole entry partner): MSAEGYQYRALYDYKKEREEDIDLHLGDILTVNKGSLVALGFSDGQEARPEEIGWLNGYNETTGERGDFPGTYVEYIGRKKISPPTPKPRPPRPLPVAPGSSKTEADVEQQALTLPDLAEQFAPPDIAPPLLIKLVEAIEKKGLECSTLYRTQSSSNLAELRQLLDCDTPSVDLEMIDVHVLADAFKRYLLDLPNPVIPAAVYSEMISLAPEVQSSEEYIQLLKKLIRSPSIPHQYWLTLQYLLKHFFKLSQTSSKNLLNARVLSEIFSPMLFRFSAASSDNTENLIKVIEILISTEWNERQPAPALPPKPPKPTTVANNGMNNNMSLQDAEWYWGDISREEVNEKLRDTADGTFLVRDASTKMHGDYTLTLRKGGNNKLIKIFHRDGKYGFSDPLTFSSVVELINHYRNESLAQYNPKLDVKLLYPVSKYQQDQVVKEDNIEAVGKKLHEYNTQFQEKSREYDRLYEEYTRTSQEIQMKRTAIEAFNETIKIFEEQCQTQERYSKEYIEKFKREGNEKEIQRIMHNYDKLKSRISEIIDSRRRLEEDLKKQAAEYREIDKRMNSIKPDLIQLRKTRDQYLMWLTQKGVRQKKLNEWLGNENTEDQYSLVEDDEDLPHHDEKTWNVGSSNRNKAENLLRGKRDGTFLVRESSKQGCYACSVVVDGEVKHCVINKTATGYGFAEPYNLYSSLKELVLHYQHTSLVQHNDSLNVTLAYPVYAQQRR
The assay is described as follows: PI3K Activity Assay (ADP Hunter Plus). Particulars: PI3Kα activity, quantitative results; read-out: PI3Kα IC50. It counts as biochemical. Here is the method:
The kinase activity was measured by using the commercial ADP Hunter™ Plus assay available from DiscoveRx (#33-016), which is a homogeneous assay to measure the accumulation of ADP, a universal product of kinase activity. […] Reaction was carried out for 1 hour at 25° C. Reagent A and B were sequentially added to the wells and plates were incubated for 30 min at 37° C. […] Values were normalized against the control activity included for each enzyme (i.e., 100% PI3 kinase activity, without compound). These values were plot against the inhibitor concentration and were fit to a sigmoid dose-response curve by using the Graphad software.
Turning to `CNc1ncc(-c2nc(N3CCOCC3)c3nc(CN4CCN(S(C)(=O)=O)CC4)cn3c2Cl)cn1` [2-207], the IC50 was 11 nM.

Regarding `COc1ccncc1-c1cn2cc(CN3CCN(S(C)(=O)=O)CC3)nc2c(N2CCOCC2)n1` [2-204], the IC50 came out at 10000 nM. As to `CS(=O)(=O)N1CCN(Cc2nc3c(N4CCOCC4)nc(-c4cccc5[nH]ncc45)cn3c2Br)CC1` [2-183], the IC50 came out at 170 nM.

In the case of `COC(=O)C1COCCN1c1nc(-c2cnc(N)nc2)cn2cc(C)nc12` (stereo not shown) [2-227], the IC50 came to 6090 nM. Still for that read-out and setting: as for `Nc1ncc(-c2cn3cc(CN4CCC(O)CC4)nc3c(N3CCOCC3)n2)cn1` [2-229], the figure is 114 nM; as for `Cc1cnc2c(N3CCOCC3)nc(-c3ccc(NC(=O)Nc4cccc(C(=O)O)c4)cc3)cn12` [2-244], 144 nM.

Staying with this assay, now noted: quantitative results of Table 4; read-out: PI3Kα IC50.
For the compound `NC(=O)c1cn2cc(-c3ccncc3)nc(N3CCOCC3)c2n1` [2-91], the IC50 worked out at 3900 nM. Take `COC(=O)Cc1cn2cc(-c3cccc4[nH]ncc34)nc(N3CCOCC3)c2n1` [2-107]: the IC50 is 2600 nM. As to `CC(C)(C)OC(=O)N1CCC2(CCN(Cc3cn4cc(-c5cccc6[nH]ncc56)nc(N5CCOCC5)c4n3)CC2)CC1` [2-98], the IC50 came to 7200 nM.

For the compound `CS(=O)(=O)N1CCC2(CCN(Cc3cn4cc(-c5cccc6[nH]ncc56)nc(N5CCOCC5)c4n3)C2)CC1` [2-129], the IC50 stood at 2500 nM. Still for that read-out and setting: as for `O=C1NCCC12CCN(Cc1cn3cc(-c4cccc5[nH]ncc45)nc(N4CCOCC4)c3n1)CC2` [2-130], the figure is 1400 nM. In the case of `NC(=O)c1cn2cc(-c3cnc(N)nc3)nc(N3CCCCC3)c2n1` [2-120], the IC50 was determined as 1300 nM.

As to `CS(=O)(=O)N1CCC2(CC1)CN(Cc1cn3cc(-c4cnc(N)nc4)nc(N4CCOCC4)c3n1)C2` [2-169], the IC50 stood at 110 nM. The same measure, in the same setting: to `CS(=O)(=O)N1CCN(Cc2cn3cc(-c4c(F)ccc5[nH]cc(Cl)c45)nc(N4CCOCC4)c3n2)CC1` [2-122] belongs 50000 nM. Same read-out and setting: as for `COc1cc(C)c(-c2cn3cc(CN4CCN(S(C)(=O)=O)CC4)nc3c(N3CCOCC3)n2)cn1` [2-153], the figure is 2400 nM; as for `c1cc(-c2cn3cc(CN4CCC5(CCNCC5)CC4)nc3c(N3CCOCC3)n2)c2cn[nH]c2c1` [2-111], 813 nM; as for `O=C(NCCN1CCOCC1)c1cn2cc(-c3cccnc3)nc(N3CCOCC3)c2n1` [2-159], 398 nM.

As for `CC(C)(C)OC(=O)N1CC2CN(Cc3cn4cc(-c5cccc6[nH]ncc56)nc(N5CCOCC5)c4n3)CC2C1` (stereo not shown) [2-99], the 50% inhibitory concentration (IC50) amounted to 7900 nM.

Take `Cc1cn2cc(-c3cnc(N)nc3)nc(-c3ccncc3)c2n1` [2-166]: the IC50 is 1800 nM. For the compound `O=C1CC2(CCN(Cc3cn4cc(-c5cccc6[nH]ncc56)nc(N5CCOCC5)c4n3)CC2)CN1` [2-131], the IC50 was 14000 nM. Turning to `CN(C)C(=O)c1cn2cc(-c3cccc4[nH]ncc34)nc(N3CCOCC3)c2n1` [2-86], the IC50 is 891 nM. Still for that read-out and setting: to `CC(=O)NCCNC(=O)c1cn2cc(-c3cccnc3)nc(N3CCOCC3)c2n1` [2-158] belongs 2300 nM. Same read-out and setting: as for `NC(=O)c1cn2cc(-c3cccc4[nH]ccc34)nc(N3CCOCC3)c2n1` [2-94], the figure is 944 nM; as for `Cc1ccncc1-c1cn2cc(CN3CCN(S(C)(=O)=O)CC3)nc2c(N2CCOCC2)n1` [2-152], 468 nM.

For `CS(=O)(=O)N1CCN(Cc2cn3cc(-c4ccc(N)cc4)nc(N4CCOCC4)c3n2)CC1` [2-89], the IC50 is 33000 nM.

In the case of `CC(C)(C)OC(=O)N1CCC2(CCN(Cc3cn4cc(-c5cccc6[nH]ncc56)nc(N5CCOCC5)c4n3)CC2)C1` [2-97], the half-maximal inhibitory concentration (IC50) is 4500 nM. As for `NC(=O)c1cn2cc(-c3c(F)ccc4[nH]ccc34)nc(N3CCOCC3)c2n1` [2-95], the IC50 was 891 nM.

Consider `CS(=O)(=O)N1CCN(Cc2cn3cc(-c4cn[nH]c4)nc(N4CCOCC4)c3n2)CC1` [2-90], for which the IC50 was found to be 6000 nM. Same read-out and setting: as for `CC(C)(C)OC(=O)N1CCC2(CCN(Cc3cn4cc(-c5cccc6[nH]ncc56)nc(N5CCOCC5)c4n3)C2)CC1` [2-100], the figure is 5300 nM; as for `COc1ccc(-c2nc(N3CCOCC3)c3nc(CN4CCN(S(C)(=O)=O)CC4)cn3c2Cl)cn1` [2-109], 1000 nM; as for `O=C(c1cn2cc(-c3cccc4[nH]ncc34)nc(N3CCOCC3)c2n1)N1CCCC1` [2-87], 355 nM. With `CS(=O)(=O)N1CCC2(CCN(Cc3cn4cc(-c5cccc6[nH]ncc56)nc(N5CCOCC5)c4n3)CC2)CC1` [2-149], the IC50 was 1300 nM.

The assay is the same for the next values; noted with them: quantitative results; read-out: PI3Kα IC50.
`Cc1cn2cc(-c3cccc(O)c3)nc(N3CCOCC3)c2n1` [2-23, 3-(2-methyl-8-morpholinoimidazo[1,2-a]pyrazin-6-yl)phenol]: the IC50 worked out at 96 nM.

Take `Cc1cn2c(Br)c(-c3cccc4[nH]ncc34)nc(N3CCOCC3)c2n1` [2-55, 5-bromo-6-(1H-indazol-4-yl)-2-methyl-8-morpholinoimidazo[1,2-a]pyrazine]: the 50% inhibitory concentration (IC50) came to 12000 nM. `CS(=O)(=O)N1CCN(Cc2cn3cc(-c4cnc(N)c(C(F)(F)F)c4)nc(N4CCOCC4)c3n2)CC1` [2-83]: the IC50 turned out to be 210 nM. As to `O=C1CN(Cc2cn3cc(-c4cccc(O)c4)nc(N4CCOCC4)c3n2)CCN1` [2-08, 4-((6-(3-hydroxyphenyl)-8-morpholinoimidazo[1,2-a]pyrazin-2-yl)methyl)piperazin-2-one], the IC50 was determined as 540 nM.

In the case of `CCOC(=O)c1cn2cc(-c3cccc4[nH]ncc34)nc(N3CCOCC3)c2n1` [2-52, ethyl 6-(1H-indazol-4-yl)-8-morpholinoimidazo[1,2-a]pyrazine-2-carboxylate], the IC50 was determined as 676 nM. Take `c1cc(-c2cn3cc(C4CC4)nc3c(N3CCOCC3)n2)c2cn[nH]c2c1` [2-19, 2-cyclopropyl-6-(1H-indazol-4-yl)-8-morpholinoimidazo[1,2-a]pyrazine]: the IC50 was 438 nM. For `Cc1nc2c(N3CCOCC3)nc(-c3cccc4[nH]ncc34)cn2c1C1=CCNCC1` [2-44, 3-(1,2,3,6-tetrahydropyridin-4-yl)-6-(1H-indazol-4-yl)-2-methyl-8-morpholino-imidazo[1,2-a]pyrazine], the IC50 came out at 731 nM. For the compound `CN1CCN(Cc2cn3cc(-c4cccc(O)c4)nc(N4CCOCC4)c3n2)CC1` [2-07, 3-(2a-((4-methylpiperazin-1-yl)methyl)-8-morpholinoimidazo[1,2-a]pyrazin-6-yl)phenol], the IC50 was found to be 27000 nM. For `Oc1cccc(-c2cn3cc(C4CC4)nc3c(N3CCOCC3)n2)c1` [2-14, 3-(2-cyclopropyl-8-morpholinoimidazo[1,2-a]pyrazin-6-yl)phenol], the IC50 is 340 nM.

With `CS(=O)(=O)N1CCN(Cc2cn3cc(-c4ccc(C(N)=O)cc4)nc(N4CCOCC4)c3n2)CC1` [2-68], the half-maximal inhibitory concentration (IC50) stood at 11000 nM. For the compound `Cc1cn2cc(-c3cccc(NS(C)(=O)=O)c3)nc(N3CCOCC3)c2n1` [2-28], the 50% inhibitory concentration (IC50) is 50000 nM.

The same assay, now with this note: semi-quantitative results; read-out: PI3Kα IC50 (semi-quantitative class).
With `Cc1cn2cc(-c3cccc(O)c3)nc(N3CCOCC3)c2n1` [2-23, 3-(2-methyl-8-morpholinoimidazo[1,2-a]pyrazin-6-yl)phenol], the IC50 was less than 100 nM.

In the case of `O=C1CN(Cc2cn3cc(-c4cccc(O)c4)nc(N4CCOCC4)c3n2)CCN1` [2-08, 4-((6-(3-hydroxyphenyl)-8-morpholinoimidazo[1,2-a]pyrazin-2-yl)methyl)piperazin-2-one], the IC50 lay within 100 to 1000 nM. The same measure, in the same setting: to `CS(=O)(=O)N1CCN(c2cnc3c(N4CCOCC4)nc(-c4cccc5[nH]ncc45)cn23)CC1` [2-41, 6-(1H-indazol-4-yl)-3-(4-sulfonylmethylpiperazin-1-yl)-8-morpholinoimidazo[1,2-a]pyrazine] belongs 100 to 1000 nM; to `Cc1nc2c(N3CCOCC3)nc(-c3cccc4[nH]ncc34)cn2c1C1=CCNCC1` [2-44, 3-(1,2,3,6-tetrahydropyridin-4-yl)-6-(1H-indazol-4-yl)-2-methyl-8-morpholino-imidazo[1,2-a]pyrazine], 100 to 1000 nM; to `Oc1cccc(-c2cn3cc(C4CC4)nc3c(N3CCOCC3)n2)c1` [2-14, 3-(2-cyclopropyl-8-morpholinoimidazo[1,2-a]pyrazin-6-yl)phenol], 100 to 1000 nM. Turning to `Cc1cn2c(Cl)c(-c3cccc(O)c3)nc(N3CCOCC3)c2n1` [2-49, 3-(5-chloro-2-methyl-8-morpholinoimidazo[1,2-a]pyrazin-6-yl)phenol], the 50% inhibitory concentration (IC50) was in the range of 100 to 1000 nM.

A word on the IC50: it is the concentration that gives 50% inhibition.
